In patent US20040058168A1, “Method for incorporating anionic molecules into a substrate for increasing dispersibility of anionic molecules” (priority 2002, published 2004):

Tests used:
[1] = Test-tube determination of anionic character: dye mixed with organoclay, clean clay or quat in water, centrifuged, judged visually; assay type: physicochemical; conditions: for Ionic character of the dye concluded from the test tubes: conclusion from Table 1 observations
Protocol: Thus, the molecule or ion can be tested in order to determine whether it has an anionic character (and thus can undergo the present method) or a cationic character or a neutral character. In testing certain molecules or ions, the procedure described below was employed.
Using Jarocol Straw Yellow dye as a representative example, four 1 mg samples of the dye were weighed and placed in 4 test tubes.
Subsequently, 10 mL of water was added to each of the four test tubes, and all of the samples were mixed well for 30 seconds. The samples from each of the test tubes were then centrifuged for 15 minutes in a laboratory scale centrifuge.
The analysis herein was performed visually, since the six samples tested were dyes. […] For example, for a non-dye sample, the clay may be separated from the water, both parts may be taken to dryness, and the IR spectrum of each may be recorded.

[2] = Equivalence point of anionic dye added to organoclay (water phase begins to turn a weak color); assay type: physicochemical
Description: The objective of the present Example was not only to determine the equivalence points at a fixed clay:quat ratio for the four anionic dyes listed above, but also to determine the effects that varying the clay:quat ratio had on the dye equivalence. The equivalence point for each anionic dye was recognized as the moment when the water phase of the anionic dye/organoclay composition began to turn a weak color. In other words, the equivalence point for each dye indicated the point at which the anionic dye would bleed or fail to be dispersible when the dye/organoclay composition is placed in an aqueous environment. This equivalence point, then, also indicates the point at which the weak bonding sites on the clay have been satisfied.
Determination of the equivalence point for the four anionic dyes began with the preparation of the organoclay and the subsequent addition of the dye to form the anionic dye/organoclay compositions. The organoclay, having a clay:quat ratio of 1.0:0.77, was prepared by first heating 150 grams of clay slurry (wherein the clay slurry comprises 3.24 grams of bentonite clay and thus comprises 2.16% solids) on a hot plate to approximately 65° C. Simultaneously, 2.495 grams of quat were dissolved in hot water. The quat used in this Example was Adogen 442, and the solution contained a quat:water ratio of 1:20. The quat solution was placed on the same hot plate and heated to 65° C., while being stirred to aid in the dissolution of the quat.
The bentonite clay slurry was added to a Waring blender and was allowed to mix under high speed agitation (speed 6) for about 1 minute. The quat solution was then added slowly to the clay slurry and was allowed to react for approximately 25-30 minutes. After this time, the blender was stopped for a few seconds to ensure adequate floccing.
The process described above was repeated using several different clay:quat ratios including 1:0.5 and 1:0.6 (less quat than the experiment described above) and 1:0.9 (an excess of quat with respect to the experiment described above).

[3] = Clay:Quat Ratio of 1:0.77, 3.24 g bentonite clay, quat Adogen 442

Compound	Ionic character of the dye concluded from the test tubes [1]	Equivalence Point [2, 3]	also measured
O=C(O)c1nn(-c2ccc(S(=O)(=O)O)cc2)c(O)c1N=Nc1ccc(S(=O)(=O)O)cc1 [FD&C Yellow No. 5]	anionic in nature	–	–
Cc1ccc(N=Nc2c([O-])c(C(=O)O)cc3ccccc23)c(S(=O)(=O)[O-])c1.[Na+].[Na+] [Lithol Rubine B]	requisite anionic character	0.4103 grams	Equivalence Point ([2]; Clay:Quat Ratio of 1:0.5): 0.0693 grams; Equivalence Point ([2]; Clay:Quat Ratio of 1:0.6): 0.1471 grams; Color change of dye on incorporation into organoclay ([2]; clay:quat ratios of 1:0.77, 1:0.6 and 1:0.5): color change took place; Test Tube 3 (10 mg Quat) visual observation ([1]; 1 mg sample + 10 mg quat, 10 mL water, mixed 30 seconds, centrifuged 15 minutes): the quat layer was dark red and the water layer was clear; Test Tube 4 (Control, sample only) visual observation ([1]; 1 mg sample only, 10 mL water, mixed 30 seconds, centrifuged 15 minutes): Water was red
CN(C)c1ccc2nc3ccc(=[N+](C)C)cc-3sc2c1 [Methylene Blue, reference compound]	cationic in nature	–	–
D&C Green No. 5	–	0.4853 grams	–
FD&C Blue No. 1	anionic in nature	0.3750 grams	–
